According to patent US12329753B2, “Phosphodiesterase inhibitor treatment” (Cyrano Therapeutics, Inc., priority 2008, dated 2025):

Legend:
Type in all cases: in vivo, human
cGMP = assay: Parotid saliva cGMP, 96 plate spectrophotometric assay; settings: for saliva cGMP over initial values: improved patients; for change of saliva cGMP: unimproved patients
Protocol: Parotid saliva was collected from each patient by application of a Lashley cup over Stensen's duct with lingual stimulation by placement of concentrated lemon juice. Saliva was collected in plastic tubes and stored at −20° C. until assayed. cAMP and cGMP were measured in saliva by a sensitive 96 plate spectrophotometric assay (R&D Systems, Minneapolis, MN).
All patients were placed in a fixed design open label clinical trial with treatment with oral theophylline. Treatment consisted of fixed treatment periods of two-eight months with sequential doses of the drug at 200 mg, 400 mg and 600 mg. At termination of each of these intervals, patients returned to study site for reevaluation. At the end of each interval subjective responses to treatment were measured with a modification of the 0-100 scale previously used (vs). Subjective responses to treatment were graded on a sliding scale from −100-0-+100 with patients recording improvement (+0-+100), no improvement (0) or worsening (0—-100) of their overall smell function. If overall smell function improved ≥5% they were considered to improve clinically (1). If smell function improved <5% they were considered not to improve (1). At the end of each interval subjective measurements of smell function, measurements of DT, RT, ME and H and measurements of parotid saliva for levels of cAMP and cGMP were obtained. In addition, blood plasma was obtained by venipuncture, placed in ice into zinc free tubes which contained 100 mg zinc free heparin, centrifuged at 3000 rpm for 10-20 min, the plasma transferred to plastic PCR tubes and stored at −20° C. until assayed. Theophylline was assayed by a fluorescence polarization assay (Abbott, Chicago, IL), as previously described.
Data for the cyclic nucleotides from these 31 patients was not analyzed until the entire study of the 312 patients in Example 1 was assembled and analyzed in its entirety. After completion of these analyses, all data for parotid saliva cAMP and cGMP from all patients in whom salivary cAMP and cGMP were obtained were assembled. Levels of salivary cyclic nucleotides varied widely. Initially, without external criteria, there was no way to understand these disparate data. […] In a similar manner, measurements of each patient's plasma theophylline level at each dosage of theophylline (at 200 mg, 400 mg, 600 mg of theophylline) were catagorized. The two patient groups were also analyzed post hoc with respect to type of smell loss and etiology of smell loss.

patients with hyposmia [1] = assay: Pilot study of intranasal theophylline, subjective taste and smell response
Text: Ten patients with hyposmia were selected from among 400 patients with hyposmia to participate in a pilot study to determine safety and efficacy of intranasal theophylline for the treatment of hyposmia. […] Selection for inclusion in the intranasal study was based upon several criteria. 1) non-response to oral theophylline; 2) severe side effects with oral theophylline that prevented reaching a dose of sufficient strength to restore smell function; and/or 3) preference for intranasal medication over oral medication.
Subjective responses to treatment were obtained independent of any interaction with the clinical staff by using a scale of 0-100 to measure response of taste function and smell function to treatment with 0 indicating no response, 100 indicating return to normal function and intermediate numbers indicating an intermediate response.
The patients inserted a plastic syringe containing 0.4 ml of fluid (20 μg theophylline) into each naris once a day. […] The drug dose was delivered through a plastic nipple which fitted snugly onto the filled syringe which was attached directly to the nipple. One nipple was supplied for each set of two syringes in each application kit. The patient fitted the nipple on one syringe, placed the nipple securely into the lower naris and injected the contents of the syringe directly into the lower vault of one naris accompanied by a modest inhalation. […]

patients with hyposmia [2] = assay: Subjective overall smell function response to oral theophylline
Protocol: Independently, patients were also required to grade their ability to smell daily on a scale from 0-100, with 0 reflecting no overall smell function over a 24 hour period, 100 reflecting normal overall smell function over this period and numbers between 0-100 reflecting their estimation of their overall ability to smell odors over this period.
After determination of hyposmia, patients were treated in an open label, fixed design, controlled open trial. Patients were given an oral extended release theophylline in divided daily doses taken in the middle of breakfast and lunch. All patients were initially given 200 mg of theophylline; changes in this dose were made based upon subjective responses to therapy. If at a subsequent return visit, patients reported ≥5% subjective improvement in overall smell function, they continued on this same dose of theophylline and were reevaluated after four to six months of continued treatment. Results from any subsequent return from these improved patients were not included in any subsequent data report. All subsequent comparisons between treated and untreated patients were made only between those patients continuing in the study compared to their own measurements obtained in the untreated state. If patients reported <5% subjective improvement, their theophylline dose was increased by 200 mg daily and they were scheduled for retesting at the study site after two to four months at this new dosage. For patients that reported <5% improvement, this sequence continued until patients reached 800 mg of theophylline, at which time the study was considered completed.
Patients returned for reevaluation after two to four months of treatment. Measurements of blood serum theophylline were measured by a fluorescence polarization assay (Abbott, Chicago, IL). At this time, subjective changes in smell function were measured independently (compared to patient's memory of previous normal smell function monitored by use of the patients' daily measurements) using the scale from −100-0-+100 previously described (vs). After independently recording their subjective responses, smell function was measured for all four odors with DT, RT, ME and H determined without recourse to prior measurements.
Subjective overall changes in smell acuity were reported by telephone and by FAX or email at two-four month intervals after treatment was initiated using the standardized form in which they measured daily changes in smell acuity using the −100-0-+100 scale as noted above (vs). Using the same criteria noted above, if at their initial two-four month call-in they reported improvement in smell acuity of ≥5%, they continued at 200 mg and returned to the study site at four-six months on this treatment dose. If they reported improvement in smell acuity of <5% their dose of theophylline was increased to 400 mg for an additional two-four months and they then called the study site at the end of this period.

Question: With `Cn1c(=O)c2[nH]cnc2n(C)c1=O` [theophylline] as the compound, how does the “saliva cGMP over initial values” (cGMP; oral 400 mg) read?
Answer: 275%

Question: And the “change of saliva cGMP” value (cGMP; oral 400 mg)?
Answer: little change

Question: What about the “saliva cGMP over initial values” (cGMP; oral 600 mg) of the same compound?
Answer: 338%

Question: And the “change of saliva cGMP” value (cGMP; oral 600 mg)?
Answer: no increase

Question: What about the “subjective improvement in both taste and smell function over prior results with oral theophylline” value (patients with hyposmia [1]; intranasal 20 μg per naris once a day, 4 weeks, six of eight patients) of the same compound?
Answer: 10-20%

Question: What about the “further loss of smell while in the study” value (patients with hyposmia [1]; intranasal 20 μg per naris, after stopping oral theophylline) of the same compound?
Answer: No patient exhibited a further of loss of smell

Question: And the “patients improved ≥5% (subjective)” value (patients with hyposmia [2]; oral 200 mg daily, 34 of 199 returning patients)?
Answer: 17.1%

Question: What about the “improved patients who considered smell function returned to normal” value (patients with hyposmia [2]; oral 200 mg daily, nine of the 34 improved) of the same compound?
Answer: 26.5%

Question: And the “patients reporting return to normal” value (patients with hyposmia [2]; oral 200 mg, one of the improved non-returning patients)?
Answer: 14.3%

Question: And the “patients reporting >5% improvement” value (patients with hyposmia [2]; oral 200 mg, seven of the 15 non-returning patients)?
Answer: 46.7%

Question: And the “patients improved ≥5% (subjective)” value (patients with hyposmia [2]; oral 400 mg daily, 35 of 120 patients)?
Answer: 29.2%

Question: What about the “improved patients who considered smell function returned to normal” value (patients with hyposmia [2]; oral 400 mg daily, three of the 35 improved) of the same compound?
Answer: 8.6%

Question: And the “patients who considered smell function returned to normal” value (patients with hyposmia [2]; oral 600 mg daily, 17 of 160 patients)?
Answer: 10.6%

Question: And the “patients improved ≥5% (subjective)” value (patients with hyposmia [2]; oral 600 mg daily, 66 of 160 patients)?
Answer: 41.2%

Question: And the “patients improved ≥5% (subjective)” value (patients with hyposmia [2]; oral 800 mg daily, 15 of 28 patients)?
Answer: 53.6%

Question: And the “patients who considered smell function returned to normal” value (patients with hyposmia [2]; oral 800 mg daily, three patients)?
Answer: 33%

Question: And the “improved patients reporting return to normal” value (patients with hyposmia [2]; oral 200-600 mg, Type III hyposmia, 3 of 5)?
Answer: 60%

Question: And the “improved patients reporting return to normal” value (patients with hyposmia [2]; oral 200-800 mg, Type I hyposmia, 5 of 32)?
Answer: 15.6%

Question: And the “improved patients reporting return to normal” value (patients with hyposmia [2]; oral 200-800 mg, Type II hyposmia, 26 of 129)?
Answer: 20.2%

Question: What about the “time course of subjective response” value (patients with hyposmia [2]; oral theophylline) of the same compound?
Answer: little or no improvement before four-six weeks of treatment

Question: And the “responsive patients who considered smell function returned to normal” value (patients with hyposmia [2]; whole study, 34 of 157)?
Answer: 21.7%
